Measurements from US20240317721A1, “PYRAZOLYL DERIVATIVES AS INHIBITORS OF THE KRAS MUTANT PROTEIN” (NOVARTIS AG, priority 2021, published 2024).
pIC50: −log10 of the molar value.

Target: KRasG12C (M1-K169, biotinylated on the N-terminus) (Homo sapiens (Human), UniProt P01116, G12C)
Assay: Covalent competition assay: scintillation proximity assay (SPA) quantifying covalent modification of KRASG12C
Format: binding
Settings: competition with radiolabeled covalent probe (Compound B/Compound A), 2 hours incubation, 10 nM KRasG12C
Summary of the method: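 Scintillation proximity readout after streptavidin bead capture (30 min) of biotinylated KRasG12C(M1-K169):GDP, 10 nM final, which was covalently labelled over 2 h by 25 nM radio-probe plus 475 nM cold probe unless blocked by compound.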

Row | SMILES | pIC50
1 | CC#CC(=O)N1CC2(CC(n3nc(N4CCN(C5COC5)CC45CCC5)c(-c4c(Cl)c(C)cc5[nH]ncc45)c3C)C2)C1 (single isomer, unassigned) [Example 78a, 1-(6-(4-(5-chloro-6-methyl-1H-indazol-4-yl)-5-methyl-3-(8-(oxetan-3-yl)-5,8-diazaspiro[3.5]nonan-5-yl)-1H-pyrazol-1-yl)-2-azaspiro[3.3]heptan-2-yl)but-2-yn-1-one] | 5.89
2 | C=CC(=O)N1CC2(CC(n3nc(N4CCCCC45CN(C(C)=O)C5)c(-c4c(Cl)c(C)cc5[nH]ncc45)c3C)C2)C1 (single isomer, unassigned) [Example 66a, 1-(6-(3-(2-acetyl-2,5-diazaspiro[3.5]nonan-5-yl)-4-(5-chloro-6-methyl-1H-indazol-4-yl)-5-methyl-1H-pyrazol-1-yl)-2-azaspiro[3.3]heptan-2-yl)prop-2-en-1-one] | < 4.30
3 | C=CC(=O)N1CC2(CC(n3nc(N4CCN(C(C)=O)C5(CCC5)C4)c(-c4c(Cl)c(C)cc5[nH]ncc45)c3C)C2)C1 (single isomer, unassigned) [Example 20b, 1-(6-(3-(5-acetyl-5,8-diazaspiro[3.5]nonan-8-yl)-4-(5-chloro-6-methyl-1H-indazol-4-yl)-5-methyl-1H-pyrazol-1-yl)-2-azaspiro[3.3]heptan-2-yl)prop-2-en-1-one] | 4.42
4 | C=CC(=O)N1CC2(CC(n3nc(N4CCC(O)CC4(C)C)c(-c4c(Cl)c(C)cc5[nH]ncc45)c3C)C2)C1 (single isomer, unassigned) [Example 29a, 1-(6-(4-(5-chloro-6-methyl-1H-indazol-4-yl)-3-(4-hydroxy-2,2-dimethylpiperidin-1-yl)-5-methyl-1H-pyrazol-1-yl)-2-azaspiro[3.3]heptan-2-yl)prop-2-en-1-one] | < 5.30
5 | C=CC(=O)N1CC2(CC(n3nc(N4CCC(N5C[C@@H]6C[C@H]5CO6)CC4(C)C)c(-c4c(Cl)c(C)cc5[nH]ncc45)c3C)C2)C1 (single isomer, unassigned) [Example 83a] | < 5.30
6 | C=CC(=O)N1CC2(CC(n3nc(N4CCN(C(C)=O)CC4(C)C)c(-c4c(Cl)c(C)cc5[nH]ncc45)c3C3CC3)C2)C1 (single isomer, unassigned) [Example 24a, 1-(6-(3-(4-acetyl-2,2-dimethylpiperazin-1-yl)-4-(5-chloro-6-methyl-1H-indazol-4-yl)-5-cyclopropyl-1H-pyrazol-1-yl)-2-azaspiro[3.3]heptan-2-yl)prop-2-en-1-one] | < 4.30
7 | C=CC(=O)N1CC2(CC(n3nc(N4CCC5(CN(C6COC6)C5)CC45CCC5)c(-c4c(Cl)c(C)cc5[nH]ncc45)c3C)C2)C1 (single isomer, unassigned) [Example 93a, 1-(6-(4-(5-chloro-6-methyl-1H-indazol-4-yl)-5-methyl-3-(2-(oxetan-3-yl)-2,10-diazadispiro[3.1.3^6.3^4]dodecan-10-yl)-1H-pyrazol-1-yl)-2-azaspiro[3.3]heptan-2-yl)prop-2-en-1-one] | < 5.30
8 | C=CC(=O)N1CC2(CC(n3nc(N4CC(c5cccnc5)C4)c(-c4c(Cl)c(C)cc5[nH]ncc45)c3C)C2)C1 (single isomer, unassigned) [Example 37a, 1-(6-(4-(5-chloro-6-methyl-1H-indazol-4-yl)-5-methyl-3-(3-(pyridin-3-yl)azetidin-1-yl)-1H-pyrazol-1-yl)-2-azaspiro[3.3]heptan-2-yl)prop-2-en-1-one] | < 4.30
9 | C=CC(=O)N1CC2(CC(n3nc(N4CCC(CN5CC6CC(C5)O6)CC4(C)C)c(-c4c(Cl)c(Cl)cc5[nH]ncc45)c3C)C2)C1 (single isomer, unassigned) [Example 229a, 1-(6-(3-(4-((6-oxa-3-azabicyclo[3.1.1]heptan-3-yl)methyl)-2,2-dimethylpiperidin-1-yl)-4-(5,6-dichloro-1H-indazol-4-yl)-5-methyl-1H-pyrazol-1-yl)-2-azaspiro[3.3]heptan-2-yl)prop-2-en-1-one] | < 5.30
10 | C=CC(=O)N1CC2(CC(n3nc(N4CC[C@H](N(C)C(C)=O)CC4(C)C)c(-c4c(Cl)c(C)cc5[nH]ncc45)c3C)C2)C1 (single isomer, unassigned) [Example 70a] | 6.54
11 | C=CC(=O)N1CC2(CC(n3nc(N4CCC(N(CCOC)CCOC)CC45CCC5)c(-c4c(Cl)c(Cl)cc5[nH]ncc45)c3C)C2)C1 (single isomer, unassigned) [Example 80a, 1-(6-(3-(8-(bis(2-methoxyethyl)amino)-5-azaspiro[3.5]nonan-5-yl)-4-(5,6-dichloro-1H-indazol-4-yl)-5-methyl-1H-pyrazol-1-yl)-2-azaspiro[3.3]heptan-2-yl)prop-2-en-1-one] | < 5.30
12 | C=CC(=O)N1CC2(CC(n3nc(N4CCC(N(CC)C5COC5)CC4(C)C)c(-c4c(Cl)c(Cl)cc5[nH]ncc45)c3C)C2)C1 (single isomer, unassigned) [Example 61b, 1-(6-(4-(5,6-dichloro-1H-indazol-4-yl)-3-(4-(ethyl(oxetan-3-yl)amino)-2,2-dimethylpiperidin-1-yl)-5-methyl-1H-pyrazol-1-yl)-2-azaspiro[3.3]heptan-2-yl)prop-2-en-1-one] | 8.22

The remaining lines, values ahead:

Row | pIC50 | SMILES
13 | 7.96 | C=CC(=O)N1CC2(CC(n3nc(N4CCC(CN5C[C@@H]6OCCO[C@@H]6C5)CC4(C)C)c(-c4c(Cl)c(Cl)cc5[nH]ncc45)c3C)C2)C1 (single isomer, unassigned) [Example 231b]
14 | 8.10 | C=CC(=O)N1CC2(CC(n3nc(N4CC[C@@H](CN5CCOCC5)CC4(C)C)c(-c4c(Cl)c(Cl)cc5[nH]nc(N)c45)c3C)C2)C1 (single isomer, unassigned) [Example 241a]
15 | 7.07 | C=CC(=O)N1CC2(CC(n3nc(N4CCN(Cc5ccccc5)CC45CCC5)c(-c4c(Cl)c(C)cc5[nH]ncc45)c3C)C2)C1 (single isomer, unassigned) [Example 100b, 1-(6-(3-(8-benzyl-5,8-diazaspiro[3.5]nonan-5-yl)-4-(5-chloro-6-methyl-1H-indazol-4-yl)-5-methyl-1H-pyrazol-1-yl)-2-azaspiro[3.3]heptan-2-yl)prop-2-en-1-one]
16 | 8.15 | C=CC(=O)N1CC2(CC(n3nc(N4CC[C@@H](CN5CC6(CCCN6C(C)=O)C5)CC4(C)C)c(-c4c(Cl)c(Cl)cc5[nH]ncc45)c3C)C2)C1 (single isomer, unassigned) [Example 285b]
17 | < 4.30 | C=CC(=O)N1CC2(CC(n3nc(N4CCN(C(C)=O)C[C@@H]4CC)c(-c4c(Cl)c(C)cc5[nH]ncc45)c3C)C2)C1 (single isomer, unassigned) [Example 94a]
18 | 7.57 | C=CC(=O)N1CC2(CC(n3nc(N4CCN(CCO)CC45CCC5)c(-c4c(Cl)c(C)cc5[nH]ncc45)c3C)C2)C1 (single isomer, unassigned) [Example 162b, 1-(6-(4-(5-chloro-6-methyl-1H-indazol-4-yl)-3-(8-(2-hydroxyethyl)-5,8-diazaspiro[3.5]nonan-5-yl)-5-methyl-1H-pyrazol-1-yl)-2-azaspiro[3.3]heptan-2-yl)prop-2-en-1-one]
19 | 7.74 | C=CC(=O)N1CC2(CC(n3nc(N4CCN(C5CCOCC5)CC4(C)C)c(-c4c(Cl)c(Cl)cc5[nH]ncc45)c3C)C2)C1 (single isomer, unassigned) [Example 140b, 1-(6-(4-(5,6-dichloro-1H-indazol-4-yl)-3-(2,2-dimethyl-4-(tetrahydro-2H-pyran-4-yl)piperazin-1-yl)-5-methyl-1H-pyrazol-1-yl)-2-azaspiro[3.3]heptan-2-yl)prop-2-en-1-one]
20 | 6.43 | C=CC(=O)N1CC2(CC(n3nc(N4CCN(C(C)=O)C[C@@H]4C(C)C)c(-c4c(Cl)c(C)cc5[nH]ncc45)c3C)C2)C1 (single isomer, unassigned) [Example 95b]
21 | 5.80 | C=CC(=O)N1CC2(CC(n3nc(N4CCC(C(=O)N5CCN(C)CC5)CC4(C)C)c(-c4c(Cl)c(Cl)cc5[nH]ncc45)c3C)C2)C1 (single isomer, unassigned) [Example 211a, 1-(6-(4-(5,6-dichloro-1H-indazol-4-yl)-3-(2,2-dimethyl-4-(4-methylpiperazine-1-carbonyl)piperidin-1-yl)-5-methyl-1H-pyrazol-1-yl)-2-azaspiro[3.3]heptan-2-yl)prop-2-en-1-one]
22 | 8.10 | C=CC(=O)N1CC2(CC(n3nc(N4CCN(CCN5CCOCC5=O)C[C@]4(C)CC)c(-c4c(Cl)c(C)cc5[nH]ncc45)c3C)C2)C1 (single isomer, unassigned) [Example 177a]
23 | 6.41 | C=CC(=O)N1CC2(CC(n3nc(N4CCN(Cc5cn(C)nn5)C[C@]4(C)CC)c(-c4c(Cl)c(C)cc5[nH]ncc45)c3C)C2)C1 (single isomer, unassigned) [Example 188a]
24 | < 5.30 | C=CC(=O)N1CC2(CC(n3nc(N4CCN(C(C)C)CC45CCC5)c(-c4c(Cl)c(C)cc5[nH]ncc45)c3C)C2)C1 (single isomer, unassigned) [Example 131a, 1-(6-(4-(5-chloro-6-methyl-1H-indazol-4-yl)-3-(8-isopropyl-5,8-diazaspiro[3.5]nonan-5-yl)-5-methyl-1H-pyrazol-1-yl)-2-azaspiro[3.3]heptan-2-yl)prop-2-en-1-one]
25 | > 8.30 | C=CC(=O)N1CC2(CC(n3nc(N4CC[C@@H](CN5CCCC56CN(C(C)=O)C6)CC4(C)C)c(-c4c(Cl)c(Cl)cc5[nH]ncc45)c3C)C2)C1 (single isomer, unassigned) [Example 276b]
26 | 6.05 | C=CC(=O)N1CC2(CC(n3nc(N4CC[C@@H](CN5CCC6(C5)CN(C(C)=O)C6)CC4(C)C)c(-c4c(Cl)c(Cl)cc5[nH]ncc45)c3C)C2)C1 (single isomer, unassigned) [Example 317a]
27 | < 5.30 | C=CC(=O)N1CC2(CC(n3nc(N4CCN(C[C@H]5CCCO5)CC45CCC5)c(-c4c(Cl)c(C)cc5[nH]ncc45)c3C)C2)C1 (single isomer, unassigned) [Example 153a]
